# In US10485814B2, “Nicotinamide riboside analogs and pharmaceutical compositions and uses thereof” (GlaxoSmithKline Intellectual Property (No. 2) Limited, priority 2014, dated 2019):
# “Also recorded” adds a separate entry of the source.
# Legend:
# HaCaT cells = assay: H2O2-induced reactive oxygen species (ROS) in HaCaT cells (CellROX deep red); format: cell-based, human
# Experimental: HaCaT cells were grown as described in example 23 and were seeded in 96-well plates (Nunc™ black with optical bottom, Thermo Fisher Scientific, Inc., Waltham, Mass.) with a density at 2×10^4 cells per well and 100 μl medium in each well, and grown overnight before treatments. Stock solutions of NRH and other test compounds were prepared and diluted to 2× of final treatment concentrations in DMEM medium in 96-well storage plate as indicated in the FIG. 11. HaCaT Cells were treated in triplicates by adding 100 μl of diluted solutions of test compounds (2×) to each well containing 100 μl medium already. Cells were incubated in the presence of test compounds for 3 hrs. At the end of 3 hr incubation, cells were washed once with 200 μl DPBS with Ca^++ and Mg^++ (Life Technologies) and then fed with 100 μl DMEM medium each well containing H2O2 at 250 μM (as a ROS (reactive oxygen species) inducer, Sigma). After 30 min incubation, cells were washed once with 200 μl DPBS with Ca^++ and Mg^++ and CellROX deep red reagent (2.5 mM stock solution, Life Technologies) was added to the medium to a final concentration of 5 μM. After 1 hr incubation at 37° C., 5% CO2, Cells were washed for 3 times with DPBS, fluorescence signal was read at Ex. 640 nm and Em. 665 nm in Biotek Synergy H4 microplate reader (BioTek, Winooski, Vt.). Untreated cells were served as controls (normalized to 1). All the treated samples were normalized to the untreated control.
# [1] = Gravimetric Vapor Sorption (GVS); format: physicochemical; settings: 90% RH, 25° C.
# Experimental: Gravimetric Vapor Sorption (GVS): Samples were analyzed using a VTI corporation (now part of TA Instruments) SGA-100 with Cahn microbalance equipped with quartz sample and reference pans. Samples were dried in the SGA-100 under dry nitrogen for 5 hours at 25° C. followed by a moisture absorption step ramp from 5% relative humidity (RH) to 95% or 90% RH followed by a desorption step ramp back to 5% or 10% RH (all steps at 25° C.). The samples were held at each % RH step for 4 hours.
# C57BL/6 DIO mice = assay: NRH triacetate efficacy in DIO (Diet-Induced Obesity) mice; format: in vivo
# Experimental: C57BL/6 DIO mice and lean controls were purchased from Taconic (Hudson, N.Y.). All mice were fed Purina 5001 chow ad libitum from weaning until 6 weeks of age, then DIO mice were fed a diet containing 60% fat, ad libitum. When the mice were 18 weeks old, dosing was begun. Mice were segregated into groups of 8, with group A receiving vehicle (1:1 (v:v) PEG400: water), group B receiving 100 mg/kg nicotinamide riboside hydride triacetate as a solution in vehicle, group C receiving 500 mg/kg nicotinamide riboside hydride triacetate as a solution in vehicle, and group D (chow-fed lean control mice) receiving vehicle. The mice were dosed once per day via oral gavage for six weeks. After three weeks of dosing, body weights, post-prandial blood glucose, and post-prandial blood insulin levels were measured using commercially available kits. After four weeks of dosing, fasted blood glucose and fasted blood insulin levels were measured. Nicotinamide riboside and NAD levels were measured after four weeks of dosing, using the same extraction and LCMS protocol as described in Example 21 with NAD giving an LC retention time=2.5 min, MS Q1 peak, m/z=664(M+H)+, Q3 peak, m/z=428 (M-Cl1H13N2O4). Statistical analysis was performed using one-way ANOVA, and Dunnett's post test.
# Chow-fed mice were used as non-diabetic controls.
# [2] = Plasma hydrolysis of nicotinamide riboside analogs to NR (incubation with rat plasma, LC/MS/MS); format: in vitro ADME; settings: 10 mM, incubated 30 min at 37° C.
# Experimental: Compounds were diluted with rat plasma to a concentration of 10 millimolar (mM). Samples were incubated for 30 min at 37° C., taking 50 microL aliquots for analysis at 0 and 30 min. The aliquots were loaded onto a deep 96 well plate, then 350 microL of 0.1% (v:v) formic acid in acetonitrile was added to each well. The plate was covered and sealed to prevent evaporation, then it was placed on an orbital plate shaker set to 800-900 rps for 5-10 minutes. Next, the plate was centrifuged at around 3000 rpm for 5 min to provide a clear supernatant. For LC/MS/MS analysis, 200 microL of supernatant from each well was transferred onto a clean plate, which was subsequently capped and placed into an autosampler.
# (§1) LCMS Conditions. For each well, a 10 microL sample was injected via autosampler onto a Chromolithe Performance, RP-18e (100×4.6 mm) column, and eluted with a binary gradient. Solvent A=0.1% formic acid, 0.1% N,N-dibutyl-N-methylamine (DBME) in 2 mM aqueous ammonium acetate (1:1:1000 v:v:v). Solvent B=0.1% formic acid in acetonitrile (1:1000 v:v). The solvent gradient was as follows: 0-0.22 min, 95:5 A:B; […], 95:5 A:B to 30:70 A:B (linear gradient); 5.05-6.05 min, 30:70 A:B; 6.05-6.60 min, 30:70 A:B to 95:5 A:B (linear gradient); 6.60-7.15 min, 95:5 A:B; stop elution at 7.15 min. Nicotinamide riboside eluted at approximately 1.7 min. A triple-quadrupole mass spectrometer was employed for peak identification. The identity of the analyte was confirmed by MS observation of a Q1 peak at m/z=255 (M)^+, and a Q3 peak at m/z=123.1 (M-C5H8O4)^+.
# The results are shown in FIG. 3, with the release of free nicotinamide riboside measured using by HPLC-MS at 0, 30, and 60 minute time points (columns 5, 6, and 7 of table shown in FIG. 3). For each of NR esters in Table 3, except nicotinamide riboside tribenzoate, nicotinamide riboside was detected at the 30 minute time point.
# [3] = Plasma/blood nicotinamide riboside levels in orally dosed mice (LCMS); format: in vivo; settings: oral gavage 500 mg/kg in PBS; for plasma nicotinamide riboside levels: both 2 h and 6 h post-dose
# Experimental: Compounds were suspended in phospho-buffered saline (PBS) solution at 125 mg/mL. Eight mice were dosed via oral gavage with study compound at 500 mg/kg, (20 mg compound in 160 microL of PBS for a 40 g mouse). Four mice were euthanized via CO2 asphyxiation at 2 h post-dose, then the remaining four were euthanized at 6 h post-dose, and blood was collected immediately following euthanasia via cardiac puncture, orbital bleed, or tail vein nick. Approximately 600 microL of blood was collected from each mouse. The blood samples were diluted with 5 volumes of 70% (1% sulfosalicylic acid/1 microM DTE/10 microM CD-38 inhibitor)/30% (37% 10 mM aqueous ammonium bicarbonate/63% acetonitrile). The mixture was vortexed, then centrifuged at 3000 rpm for 10 min at 4° C. to give a transparent supernatant. A 10 microL portion of the supernatant was analyzed by LCMS, using the conditions below.
# as §1, with “injected” for “injected via autosampler”, “A:B;” for “A:B; stop”, “elution was stopped” for “elution”, “(M)+,” for “(M)^+,”
# In the bar graph in FIG. 5, compounds are shown on the x-axis, and comparative LCMS signal is shown on the y-axis; with each compound dosed in mice at 500 mg study compound per 1000 g mouse as a solution or suspension in phospho-buffered saline solution (PBS) (A=blank control (PBS), B=nicotinic acid riboside hydride ethyl ester triacetate, C=Nicotinamide riboside hydride triisobutyrate, D=Nicotinamide riboside hydride tri-n-butyrate, E=Nicotinamide riboside hydride tripropionate, F=nicotinamide riboside hydride tribenzoate). As shown, samples were taken 2 hours and 6 hours post dose. Also as shown, samples were kept cold (4° C.) or at room temperature (approximately 23° C.) before analysis.
# [4] = 100 and 500 mg/kg once per day orally, after four weeks of dosing
# [5] = oral gavage once per day 100 or 500 mg/kg, post-prandial, after three weeks of dosing
Compound,conversion to free nicotinamide riboside [2],plasma nicotinamide riboside levels [3],also measured
OO [Example H2O2],–,–,"level of ROS (HaCaT cells; 250 μM H2O2, 30 min, normalized to untreated control): ~6 fold"
OCCc1ccc(O)c(O)c1 [Hydroxyterosol],–,–,"H2O2-induced ROS (HaCaT cells; 3 hr pre-incubation then 250 μM H2O2, Hydroxyterosol 0.005%, niacinamide 4.5 mM, NRH several concentrations): reduced H2O2-induced ROS"
"CC(=O)OC[C@H]1O[C@@H](N2C=CCC(C(N)=O)=C2)[C@H](OC(C)=O)[C@@H]1OC(C)=O [NRH triacetate, (2R,3R,4R,5R)-2-(acetoxymethyl)-5-(3-carbamoylpyridin-1(4H)-yl)tetrahydrofuran-3,4-diyl diacetate]",converted to free nicotinamide riboside to a significant degree,–,GVS weight gain from the dried state [1]: greater than 12%; blood NAD levels (C57BL/6 DIO mice; [4]): rose in a dose-dependent manner; also recorded: rise in a NRH-triacetate dose-dependent manner; blood nicotinamide riboside levels (C57BL/6 DIO mice; [4]): rose in a dose-dependent manner; also recorded: rise in a NRH-triacetate dose-dependent manner; blood glucose levels (C57BL/6 DIO mice; [5]): reduced; blood insulin levels (C57BL/6 DIO mice; [5]): reduced
"NC(=O)C1=CN([C@@H]2O[C@H](COC(=O)c3ccccc3)[C@@H](OC(=O)c3ccccc3)[C@H]2OC(=O)c2ccccc2)C=CC1 [NRH tribenzoate, (2R,3R,4R,5R)-2-((benzoyloxy)methyl)-5-(3-carbamoylpyridin-1(4H)-yl)tetrahydrofuran-3,4-diyl dibenzoate]",not significantly converted to free nicotinamide riboside,–,nicotinamide riboside level ([3]; 2 h post-dose): only a very modest increase
"CCCC(=O)OC[C@H]1O[C@@H](N2C=CCC(C(N)=O)=C2)[C@H](OC(=O)CCC)[C@@H]1OC(=O)CCC [NRH tributyrate, (2R,3R,4R,5R)-2-((butyryloxy)methyl)-5-(3-carbamoylpyridin-1(4H)-yl)tetrahydrofuran-3,4-diyl dibutyrate]",converted to free nicotinamide riboside to a significant degree,raised plasma nicotinamide riboside levels substantially,–
"CC(C)C(=O)OC[C@H]1O[C@@H](N2C=CCC(C(N)=O)=C2)[C@H](OC(=O)C(C)C)[C@@H]1OC(=O)C(C)C [NRH triisobutyrate, (2R,3R,4R,5R)-2-(3-carbamoylpyridin-1(4H)-yl)-5-((isobutyryloxy)methyl)-tetrahydrofuran-3,4-diyl bis(2-methylpropanoate)]",converted to free nicotinamide riboside to a significant degree,raised plasma nicotinamide riboside levels substantially,–
"CCC(=O)OC[C@H]1O[C@@H](N2C=CCC(C(N)=O)=C2)[C@H](OC(=O)CC)[C@@H]1OC(=O)CC [NRH tripropionate, (2R,3R,4R,5R)-2-(3-carbamoylpyridin-1(4H)-yl)-5 ((propionyloxy)methyl) tetrahydrofuran-3,4-diyl dipropionate]",converted to free nicotinamide riboside to a significant degree,raised plasma nicotinamide riboside levels substantially,–
